Experimental data from patent US20260184708A1, “PYRIDAZINONES AND METHODS OF USE THEREOF” (GFB (ABC), LLC, priority 2017, published 2026).
Like-named read-outs stand apart in the source and are kept apart here.

Biological target: T1, TRPC5 (Homo sapiens, UniProt Q9UL62)
T1 construct: expressed in transfected cells; host or cells: HEK 293
T1 sequence (Q9UL62 1-973): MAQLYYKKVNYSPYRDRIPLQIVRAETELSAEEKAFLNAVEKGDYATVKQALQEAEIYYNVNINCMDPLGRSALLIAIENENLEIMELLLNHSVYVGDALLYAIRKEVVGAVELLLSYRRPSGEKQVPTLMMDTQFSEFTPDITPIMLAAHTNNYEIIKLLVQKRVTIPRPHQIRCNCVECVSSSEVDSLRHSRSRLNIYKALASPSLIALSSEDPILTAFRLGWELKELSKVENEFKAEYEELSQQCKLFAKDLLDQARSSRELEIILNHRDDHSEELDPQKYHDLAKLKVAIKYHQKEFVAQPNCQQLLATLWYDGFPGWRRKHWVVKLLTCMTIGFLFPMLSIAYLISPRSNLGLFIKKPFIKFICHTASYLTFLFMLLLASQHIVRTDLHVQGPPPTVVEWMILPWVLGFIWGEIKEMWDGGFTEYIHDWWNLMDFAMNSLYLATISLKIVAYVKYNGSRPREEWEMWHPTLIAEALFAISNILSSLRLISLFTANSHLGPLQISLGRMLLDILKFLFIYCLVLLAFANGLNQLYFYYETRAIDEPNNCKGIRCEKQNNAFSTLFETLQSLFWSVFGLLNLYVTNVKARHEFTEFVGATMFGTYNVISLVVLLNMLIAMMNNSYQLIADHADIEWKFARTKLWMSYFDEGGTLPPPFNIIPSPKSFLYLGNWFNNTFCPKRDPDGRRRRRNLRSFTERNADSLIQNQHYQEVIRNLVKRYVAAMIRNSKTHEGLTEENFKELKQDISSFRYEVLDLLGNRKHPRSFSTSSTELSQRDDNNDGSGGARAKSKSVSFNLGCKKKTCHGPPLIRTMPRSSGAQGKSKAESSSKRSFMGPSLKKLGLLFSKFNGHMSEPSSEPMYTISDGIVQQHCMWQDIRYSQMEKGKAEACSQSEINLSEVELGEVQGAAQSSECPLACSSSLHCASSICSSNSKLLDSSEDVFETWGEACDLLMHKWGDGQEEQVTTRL
Assay: TRPC5 automated patch clamp assay (Qpatch), current block after rosiglitazone stimulation
Format: cell-based
Conditions: HEK293 cells overexpressing TRPC5, rosiglitazone stimulation
Protocol: HEK 293 cells expressing human TRPC5 were harvested, re-suspended in serum free medium, and added to the automated platform and used within 2-3 hours. Internal and external physiological solutions were freshly prepared prior to the assay. The external solution contained: 145 mM NaCl, 4 mM KCl, 2 mM CaCl2), 1 mM MgCl2, 10 mM HEPES, 10 mM glucose, pH 7.4 with NaOH and 300 mOsm/L. The internal solution contained 120 mM L-aspartic acid, 120 mM CsOH·H2O, 20 mM CsCl, 2 mM MgCl2, 8.8 mM CaCl2), 10 mM EGTA, 10 mM HEPES, 10 mM Glucose, 0.1 mM GTP and 2 mM Na2ATP; pH 7.2 with CsOH and 290 mOsm/L. The free internal Ca2+ concentration was buffered to 1 μM.
The automated electrophysiological platform QPatch 16 from Sophion (Denmark) was used to carry out the compounds profiling. The series resistance and quality of seals were continuously monitored during the experiments. Data was analyzed using Sophion QPatch assay software 5.6 (Odense). IC50 values were calculated using a least squares regression algorithm (Hill equation).
To monitor the ion currents, a voltage ramp from −100 mV to +100 mV, over 300 ms, was applied every 10 seconds, from a holding potential of −60 mV.
After recording for a minimum of 60 seconds control period, Rosiglitazone (30 uM), was applied to activate the channel.

[1] = Table 5, 80 mV, read-out: TRPC5_QP_ XC50_80
[2] = Table 5, 100 mV, read-out: TRPC5_QP_ XC50_100
[3] = 80 mV, read-out: TRPC5_QP XC50_80
[4] = 100 mV, read-out: TRPC5_QP XC50_100
[5] = Table 3, 80 mV, read-out: TRPC5_QP_ XC50_80
[6] = Table 3, 100 mV, read-out: TRPC5_QP_ XC50_100
[7] = Table 4, 80 mV, read-out: TRPC5_QP_ XC50_80
[8] = Table 4, 100 mV, read-out: TRPC5_QP_ XC50_100

CC(c1ccccc1)n1cnc2c1CCN(c1cn[nH]c(=O)c1Cl)C2 (stereo not drawn)
IC50 [1]: 1 to 5 µM | IC50 [2]: 1 to 5 µM

Cc1ccccc1CN1CCN(c2cn[nH]c(=O)c2Br)CC12CC2
IC50 [3]: 10 to 500 µM | IC50 [4]: 10 to 500 µM

O=c1[nH]ncc(N2CCN(CC3CCCCC3)CC2)c1Br
IC50 [3]: 1 to 5 µM | IC50 [4]: 1 to 5 µM

COc1ncccc1CN1CCN(c2cn[nH]c(=O)c2Cl)CC1=O
IC50 [1]: 5 to 10 µM | IC50 [2]: 5 to 10 µM

Cc1ccccc1CN1CC2CC1CN2c1cn[nH]c(=O)c1Br (stereo not drawn)
IC50 [5]: 10 to 500 µM | IC50 [6]: 10 to 500 µM

Cc1ccccc1CN1CC2CC(C1)N2c1cn[nH]c(=O)c1Br
IC50 [3]: 10 to 500 µM | IC50 [4]: 10 to 500 µM

O=c1[nH]ncc(N2CCN(Cc3cccc4cn[nH]c34)CC2)c1Cl
IC50 [7]: 10 to 500 µM | IC50 [8]: 10 to 500 µM

Cc1ccccc1CN1CCN(c2ccn[nH]c2=O)CC1=O
IC50 [1]: 10 to 500 µM | IC50 [2]: 10 to 500 µM

Cc1cc(F)ccc1CN1CCN(c2cn[nH]c(=O)c2Cl)CC1 [drawing 679]
IC50 [5]: 1 to 5 µM | IC50 [6]: 1 to 5 µM

O=C1CN(c2cn[nH]c(=O)c2Cl)CCN1Cc1ccc(F)cc1C(F)(F)F
IC50 [1]: 1e-05 to 1 µM | IC50 [2]: 1e-05 to 1 µM

O=C1N(Cc2ccccc2C(F)(F)F)CCC12CCN(c1cn[nH]c(=O)c1Br)CC2
IC50 [1]: 10 to 500 µM | IC50 [2]: 10 to 500 µM

O=c1[nH]ncc(N2CCN(Cc3cccc4ccccc34)CC2)c1Cl
IC50 [7]: 1 to 5 µM | IC50 [8]: 1 to 5 µM

O=c1[nH]ncc(N2CC3(CN(Cc4ccccc4)C3)C2)c1Br
IC50 [5]: 10 to 500 µM | IC50 [6]: 10 to 500 µM

O=c1[nH]ncc(N2CCc3ncn(Cc4ccccc4)c3C2)c1Cl
IC50 [1]: 10 to 500 µM | IC50 [2]: 10 to 500 µM

Cc1ccccc1CN1CCN(c2cn[nH]c(=O)c2Cl)C(C)C1 (stereo not drawn)
IC50 [7]: 1 to 5 µM | IC50 [8]: 1 to 5 µM

O=C1CN(c2cn[nH]c(=O)c2Cl)CCN1Cc1ccc(F)cc1Cl [drawing 682]
IC50 [5]: 1 to 5 µM | IC50 [6]: 1 to 5 µM

Cc1ccccc1CN1CCN(c2cn[nH]c(=O)c2CC(C)C)CC1=O
IC50 [7]: 10 to 500 µM | IC50 [8]: 10 to 500 µM

Cc1ccccc1CN1CCN(c2c(Cl)cn[nH]c2=O)CC1=O
IC50 [1]: 10 to 500 µM | IC50 [2]: 10 to 500 µM

Cc1ccccc1CN1CCN(c2cn[nH]c(=O)c2-c2ccccc2)CC1
IC50 [5]: 5 to 10 µM | IC50 [6]: 5 to 10 µM

O=c1[nH]ncc(N2CCOC(Cc3ccccc3)C2)c1Cl (stereo not drawn)
IC50 [7]: 10 to 500 µM | IC50 [8]: 10 to 500 µM

C=C(C)c1c(N2CCN(Cc3ccccc3C)C(=O)C2)cn[nH]c1=O
IC50 [7]: 10 to 500 µM | IC50 [8]: 10 to 500 µM

CCN(CC)C(=O)CN1CCN(c2cn[nH]c(=O)c2Cl)CC1
IC50 [7]: 10 to 500 µM | IC50 [8]: 10 to 500 µM

O=C1CN(c2cn[nH]c(=O)c2Cl)CCN1Cc1cccc2[nH]ncc12
IC50 [1]: 10 to 500 µM | IC50 [2]: 10 to 500 µM

Cc1ccccc1CN1CCN(c2cn[nH]c(=O)c2C#CC(C)C)CC1=O
IC50 [5]: 10 to 500 µM | IC50 [6]: 10 to 500 µM

O=c1[nH]ncc(Cl)c1N1CCN(Cc2ccccc2OC(F)(F)F)CC1
IC50 [7]: 5 to 10 µM | IC50 [8]: 5 to 10 µM

O=c1[nH]ncc(N2CCN(Cc3ccccc3)CC2)c1Br
IC50 [3]: 5 to 10 µM | IC50 [4]: 5 to 10 µM

Cc1cc(F)ccc1CN1CCN(c2c(C)n[nH]c(=O)c2Cl)CC1=O
IC50 [1]: 10 to 500 µM | IC50 [2]: 10 to 500 µM

Cc1cccc(C)c1CN1CCN(c2cn[nH]c(=O)c2Br)CC1
IC50 [3]: 1 to 5 µM | IC50 [4]: 1 to 5 µM

CCCOc1n[nH]c(=O)cc1N1CCN(Cc2ccc(F)cc2C)CC1
IC50 [1]: 10 to 500 µM | IC50 [2]: 10 to 500 µM

O=C1CN(c2cn[nH]c(=O)c2Cl)CCN1Cc1ccc(OC(F)(F)F)cc1F
IC50 [1]: 5 to 10 µM | IC50 [2]: 5 to 10 µM
